Measurements published in patent US10618918B2, “Substituted boronic acids as antimicrobials” (priority 2015, dated 2020).
Where two headings read alike, the source gives them in different places.

Key:
KP1010 SHV-12 = assay: Aztreonam potentiation (MPC@4), strain KP1010 SHV-12; conditions: minimum BLI concentration inhibiting growth with aztreonam 4 μg/mL; tested up to 40 μg/mL
KP1086 OXA-48 = assay: Biapenem potentiation (MPC@1), strain KP1086 OXA-48; type: cell-based; conditions: minimum BLI concentration inhibiting growth with biapenem 1 μg/mL; tested up to 40 μg/mL
Experimental: (§1) Biapenem was present in the test medium at 1 μg/mL. […] Table 3 summarizes the BLI potency of biapenem potentiation (MPC@1) for two strains overexpressing class A (KPC) and class D (OXA-48) carbapenemases. Biapenem MIC for each strain is also shown.

KP1004 KPC-2 [1] = assay: Aztreonam potentiation (MPC@4), strain KP1004 KPC-2; conditions: minimum BLI concentration inhibiting growth with aztreonam 4 μg/mL; tested up to 40 μg/mL
ECL1002 = assay: Aztreonam potentiation (MPC@4), strain ECL1002; conditions: minimum BLI concentration inhibiting growth with aztreonam 4 μg/mL; tested up to 40 μg/mL
AB1053 OXA-72 = assay: Meropenem potentiation (MPC@8), strain AB1053 OXA-72; type: cell-based, Acinetobacter baumannii; conditions: minimum BLI concentration inhibiting growth with meropenem 8 μg/mL; tested up to 20 μg/mL
KP1009 CTX-M-15 = assay: Aztreonam potentiation (MPC@4), strain KP1009 CTX-M-15; conditions: minimum BLI concentration inhibiting growth with aztreonam 4 μg/mL; tested up to 40 μg/mL
AB1054 OXA-23 = assay: Meropenem potentiation (MPC@8), strain AB1054 OXA-23; type: cell-based, Acinetobacter baumannii; conditions: minimum BLI concentration inhibiting growth with meropenem 8 μg/mL; tested up to 20 μg/mL
KP1005 CTX-M-14 = assay: Tigemonam potentiation (MPC@4), strain KP1005 CTX-M-14; conditions: minimum BLI concentration inhibiting growth with tigemonam 4 μg/mL; tested up to 40 μg/mL
ec302 TEM-10 = assay: Aztreonam potentiation (MPC@4), strain ec302 TEM-10; conditions: minimum BLI concentration inhibiting growth with aztreonam 4 μg/mL; tested up to 40 μg/mL
[2] = biological target: purified class A, C and D enzymes (β-lactamases) (Klebsiella pneumoniae, UniProt Q6XEC0); assay: biochemical; type: biochemical; conditions: purified OXA-48; nitrocefin (NCF) as reporter substrate
[3] = biological target: T1, purified class A, C and D enzymes (β-lactamases) (Acinetobacter baumannii, UniProt Q9L4P2); assay: biochemical; type: biochemical; conditions: purified OXA-23; nitrocefin (NCF) as reporter substrate
T1 construct: rows headed: Ki (OXA-23, NCF), uM; other: purified OXA-23; nitrocefin (NCF) as reporter substrate

[4] = biological target: purified class A, C and D enzymes (β-lactamases) (Enterobacter cloacae, UniProt P05364); assay: biochemical; type: biochemical
[5] = biological target: purified class A, C and D enzymes (β-lactamases) (Escherichia coli, UniProt Q9L5C7); assay: biochemical; type: biochemical; conditions: purified CTX-M-14; nitrocefin (NCF) as reporter substrate
[6] = biological target: T2, purified class A, C and D enzymes (β-lactamases) (UniProt P0AD64, L31Q/G234S/E235K, species not given); assay: biochemical; type: biochemical
T2 construct: Ki (SHV-12, NCF), uM; other: purified SHV-12; nitrocefin (NCF) as reporter substrate
T2 sequence (P0AD64 1-286 L31Q/G234S/E235K): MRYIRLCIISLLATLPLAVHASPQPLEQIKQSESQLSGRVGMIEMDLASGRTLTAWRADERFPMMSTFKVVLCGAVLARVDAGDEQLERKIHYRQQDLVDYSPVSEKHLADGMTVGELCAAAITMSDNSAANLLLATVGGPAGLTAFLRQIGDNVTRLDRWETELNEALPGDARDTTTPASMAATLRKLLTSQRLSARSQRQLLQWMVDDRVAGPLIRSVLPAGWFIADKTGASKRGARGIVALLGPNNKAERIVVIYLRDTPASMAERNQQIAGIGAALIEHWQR

[7] = biological target: T3, purified class A, C and D enzymes (β-lactamases) (Pseudomonas aeruginosa, UniProt P24735); assay: biochemical; type: biochemical
T3 construct: rows headed: Ki (Pa-AmpC, NCF), uM; other: purified Pa-AmpC; nitrocefin (NCF) as reporter substrate

[8] = biological target: purified class A, C and D enzymes (β-lactamases) (Klebsiella pneumoniae, UniProt Q9F663); assay: biochemical; type: biochemical; conditions: purified KPC-2; nitrocefin (NCF) as reporter substrate
KP1004 KPC-2 [9] = assay: Biapenem potentiation (MPC@1), strain KP1004 KPC-2; type: cell-based; conditions: minimum BLI concentration inhibiting growth with biapenem 1 μg/mL; tested up to 40 μg/mL
Experimental: as §1

ec308 SHV-5 = assay: Aztreonam potentiation (MPC@4), strain ec308 SHV-5; conditions: minimum BLI concentration inhibiting growth with aztreonam 4 μg/mL; tested up to 40 μg/mL
EC1010 CMY-6 = assay: Aztreonam potentiation (MPC@4), strain EC1010 CMY-6; conditions: minimum BLI concentration inhibiting growth with aztreonam 4 μg/mL; tested up to 40 μg/mL
[10] = read-out: Ki (SHV-12, NCF); purified SHV-12; nitrocefin (NCF) as reporter substrate

Chain of purified class A, C and D enzymes (β-lactamases) (Escherichia coli, UniProt Q9L5C7) (Q9L5C7 entry or part of it): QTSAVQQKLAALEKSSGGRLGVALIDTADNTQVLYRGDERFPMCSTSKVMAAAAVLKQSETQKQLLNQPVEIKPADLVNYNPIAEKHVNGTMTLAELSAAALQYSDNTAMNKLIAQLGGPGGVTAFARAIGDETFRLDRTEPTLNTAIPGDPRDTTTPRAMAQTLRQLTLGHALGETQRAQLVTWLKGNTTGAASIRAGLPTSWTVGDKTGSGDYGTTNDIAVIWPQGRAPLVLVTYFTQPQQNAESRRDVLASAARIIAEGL
Chain of purified class A, C and D enzymes (β-lactamases) (Enterobacter cloacae, UniProt P05364) (P05364 21-381): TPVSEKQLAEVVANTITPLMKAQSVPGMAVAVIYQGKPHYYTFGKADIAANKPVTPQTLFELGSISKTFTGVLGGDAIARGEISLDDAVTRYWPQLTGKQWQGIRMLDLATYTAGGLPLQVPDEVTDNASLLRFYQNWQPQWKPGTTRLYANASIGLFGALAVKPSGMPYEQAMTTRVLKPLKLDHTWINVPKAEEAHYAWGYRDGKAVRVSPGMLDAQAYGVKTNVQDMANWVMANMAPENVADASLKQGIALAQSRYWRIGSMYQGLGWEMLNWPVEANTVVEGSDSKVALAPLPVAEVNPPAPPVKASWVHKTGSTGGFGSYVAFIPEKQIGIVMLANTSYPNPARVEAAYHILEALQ
T1 sequence (Q9L4P2 whole entry): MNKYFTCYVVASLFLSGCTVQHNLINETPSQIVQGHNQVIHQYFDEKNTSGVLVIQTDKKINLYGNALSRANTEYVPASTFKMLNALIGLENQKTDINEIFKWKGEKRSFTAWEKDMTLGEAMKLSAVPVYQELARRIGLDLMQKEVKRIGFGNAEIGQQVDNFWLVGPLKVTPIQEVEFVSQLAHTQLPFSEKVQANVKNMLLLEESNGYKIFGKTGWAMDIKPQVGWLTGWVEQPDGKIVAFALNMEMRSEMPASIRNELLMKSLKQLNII
T3 sequence (P24735 whole entry): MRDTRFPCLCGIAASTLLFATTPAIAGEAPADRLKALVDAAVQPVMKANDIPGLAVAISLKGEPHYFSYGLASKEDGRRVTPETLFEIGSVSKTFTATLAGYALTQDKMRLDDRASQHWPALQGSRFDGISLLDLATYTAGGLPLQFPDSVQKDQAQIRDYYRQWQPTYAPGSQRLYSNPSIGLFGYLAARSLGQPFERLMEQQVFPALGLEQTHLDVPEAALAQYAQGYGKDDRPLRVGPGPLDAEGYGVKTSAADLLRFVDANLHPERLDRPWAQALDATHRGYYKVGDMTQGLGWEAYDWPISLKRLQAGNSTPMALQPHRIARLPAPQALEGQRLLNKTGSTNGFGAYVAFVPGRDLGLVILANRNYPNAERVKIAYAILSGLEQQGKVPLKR

| Structure (SMILES) | AZT MPC4 SHV-12 KP1010 (KP1010 SHV-12) | BPM MPC1 OXA-48 KP1086 (KP1086 OXA-48) | AZT MPC4 KPC-2 KP1004 (KP1004 KPC-2 [1]) | AZT MPC4 ECL1002 (ECL1002) | MPM MPC8 AB1053 OXA-72 (AB1053 OXA-72) | AZT MPC4 CTX-M-15 KP1009 (KP1009 CTX-M-15) | MPM MPC8 AB1054 OXA-23 (AB1054 OXA-23) | TIG MPC4 CTX-M-14 KP1005 (KP1005 CTX-M-14) | AZT MPC4 TEM-10 ec302 (ec302 TEM-10) | Ki (OXA-48, NCF), uM [2] | Ki [3] [nM] | Ki (CTX-M-14, NCF), uM [5] | Ki (KPC-2, NCF), uM [8] | BPM MPC1 KP1004 KPC-2 (KP1004 KPC-2 [9]) | AZT MPC4 SHV-5 ec308 (ec308 SHV-5) | AZT MPC4 CMY-6 EC1010 (EC1010 CMY-6) | Ki (P99, NCF), uM [4] | Ki [6, 10] [nM] | Ki [7] [nM] | further results |
| --- | --- | --- | --- | --- | --- | --- | --- | --- | --- | --- | --- | --- | --- | --- | --- | --- | --- | --- | --- | --- |
| C[C@H]1Cc2cccc(C(=O)O)c2O[B-]1(O)O [Compound 9, Disodium; (3S)-4,4-dihydroxy-3-methy-5-oxa-4-boranuidabicyclo[4.4.0]deca-1(6),7,9-triene-7-carboxylate] | Y (Y = 5 μg/mL < MPC@4 ≤ 20 μg/mL) | X (X = MPC@1 ≤ 5 μg/mL) | X (X = MPC@4 ≤ 5 μg/mL) | Y (Y = 5 μg/mL < MPC@4 ≤ 20 μg/mL) | Z (Z = MPC@1 > 20 μg/mL) | Z (Z = MPC@4 > 20 μg/mL) | Z (Z = MPC@1 > 20 μg/mL) | Z (Z = MPC@4 > 20 μg/mL) | Z (Z = MPC@4 > 20 μg/mL) | X (X = Ki ≤ 0.1 μM) | 100 to 1000 | X (X = Ki ≤ 0.1 μM) | X (X = Ki ≤ 0.1 μM) | X (X = MPC@1 ≤ 5 μg/mL) | Y (Y = 5 μg/mL < MPC@4 ≤ 20 μg/mL) | Y (Y = 5 μg/mL < MPC@4 ≤ 20 μg/mL) | – | – | – | Ki (P99, NCF), uM ([4]; purified P99, nitrocefin (NCF) as reporter substrate): X (X = Ki ≤ 0.1 μM); Ki ([6]; purified SHV-12; nitrocefin (NCF) as reporter substrate; read-out: Ki (SHV-12, NCF)): 100 to 1000 nM; Ki ([7]; purified Pa-AmpC, nitrocefin (NCF) as reporter substrate, read-out: Ki (Pa-AmpC, NCF)): < 100 nM |
| O=C([O-])c1c(OC(F)F)ccc2c1O[B-](O)(O)CC2.[Na+].[Na+] [Compound 56, Disodium; 8-(difluoromethoxy)-4,4-dihydroxy-5-oxa-4-boranuidabicyclo[4.4.0]deca-1(6),7,9-triene-7-carboxylate] | X (X = MPC@4 ≤ 5 μg/mL) | X (X = MPC@1 ≤ 5 μg/mL) | X (X = MPC@4 ≤ 5 μg/mL) | X (X = MPC@4 ≤ 5 μg/mL) | X (X = MPC@1 ≤ 5 μg/mL) | X (X = MPC@4 ≤ 5 μg/mL) | X (X = MPC@1 ≤ 5 μg/mL) | X (X = MPC@4 ≤ 5 μg/mL) | X (X = MPC@4 ≤ 5 μg/mL) | X (X = Ki ≤ 0.1 μM) | < 100 | X (X = Ki ≤ 0.1 μM) | X (X = Ki ≤ 0.1 μM) | X (X = MPC@1 ≤ 5 μg/mL) | X (X = MPC@4 ≤ 5 μg/mL) | X (X = MPC@4 ≤ 5 μg/mL) | X (key: X = Ki ≤ 0.1 μM; Y = 0.1 μM < Ki ≤ 1 μM; Z = Ki > 1 μM) | < 100 | < 100 | – |
| C#Cc1ccc2c(c1C(=O)[O-])O[B-](O)(O)CC2.[Na+].[Na+] [Compound 18, Disodium; 8-ethynyl-4,4-dihydroxy-5-oxa-4-boranuidabicyclo[4.4.0]deca-1(6),7,9-triene-7-carboxylate] | X (X = MPC@4 ≤ 5 μg/mL) | X (X = MPC@1 ≤ 5 μg/mL) | X (X = MPC@4 ≤ 5 μg/mL) | X (X = MPC@4 ≤ 5 μg/mL) | X (X = MPC@1 ≤ 5 μg/mL) | X (X = MPC@4 ≤ 5 μg/mL) | X (X = MPC@1 ≤ 5 μg/mL) | Z (Z = MPC@4 > 20 μg/mL) | X (X = MPC@4 ≤ 5 μg/mL) | X (X = Ki ≤ 0.1 μM) | < 100 | X (X = Ki ≤ 0.1 μM) | X (X = Ki ≤ 0.1 μM) | X (X = MPC@1 ≤ 5 μg/mL) | X (X = MPC@4 ≤ 5 μg/mL) | X (X = MPC@4 ≤ 5 μg/mL) | X (key: X = Ki ≤ 0.1 μM; Y = 0.1 μM < Ki ≤ 1 μM; Z = Ki > 1 μM) | < 100 | < 100 | – |
| NCCn1cc(COc2ccc3c(c2C(=O)O)O[B-](O)(O)CC3)nn1 [Compound 23, Disodium; 8-[[1-(2-aminoethyl)triazol-4-yl]methoxy]-4,4-dihydroxy-5-oxa-4-boranuidabicyclo[4.4.0]deca-1(6),7,9-triene-7-carboxylate] | X (X = MPC@4 ≤ 5 μg/mL) | X (X = MPC@1 ≤ 5 μg/mL) | X (X = MPC@4 ≤ 5 μg/mL) | X (X = MPC@4 ≤ 5 μg/mL) | X (X = MPC@1 ≤ 5 μg/mL) | X (X = MPC@4 ≤ 5 μg/mL) | X (X = MPC@1 ≤ 5 μg/mL) | Z (Z = MPC@4 > 20 μg/mL) | X (X = MPC@4 ≤ 5 μg/mL) | X (X = Ki ≤ 0.1 μM) | < 100 | X (X = Ki ≤ 0.1 μM) | X (X = Ki ≤ 0.1 μM) | X (X = MPC@1 ≤ 5 μg/mL) | Y (Y = 5 μg/mL < MPC@4 ≤ 20 μg/mL) | X (X = MPC@4 ≤ 5 μg/mL) | X (key: X = Ki ≤ 0.1 μM; Y = 0.1 μM < Ki ≤ 1 μM; Z = Ki > 1 μM) | < 100 | < 100 | – |
| O=C([O-])c1c(OCC2CC2)ccc2c1O[B-](O)(O)CC2.[Na+].[Na+] [Compound 45, Disodium; 8-(cyclopropylmethoxy)-4,4-dihydroxy-5-oxa-4-boranuidabicyclo[4.4.0]deca-1(6),7,9-triene-7-carboxylate] | X (X = MPC@4 ≤ 5 μg/mL) | X (X = MPC@1 ≤ 5 μg/mL) | X (X = MPC@4 ≤ 5 μg/mL) | Y (Y = 5 μg/mL < MPC@4 ≤ 20 μg/mL) | X (X = MPC@1 ≤ 5 μg/mL) | Z (Z = MPC@4 > 20 μg/mL) | X (X = MPC@1 ≤ 5 μg/mL) | Z (Z = MPC@4 > 20 μg/mL) | Y (Y = 5 μg/mL < MPC@4 ≤ 20 μg/mL) | X (X = Ki ≤ 0.1 μM) | < 100 | X (X = Ki ≤ 0.1 μM) | X (X = Ki ≤ 0.1 μM) | X (X = MPC@1 ≤ 5 μg/mL) | Y (Y = 5 μg/mL < MPC@4 ≤ 20 μg/mL) | X (X = MPC@4 ≤ 5 μg/mL) | X (key: X = Ki ≤ 0.1 μM; Y = 0.1 μM < Ki ≤ 1 μM; Z = Ki > 1 μM) | – | < 100 | – |
